# US6552196B2, “Quinolone carboxylic acid derivatives” (Dong Wha Pharmaceutical Industrial Co., Ltd., priority 1997, dated 2003)
# Tests used:
# Test in all cases: In vitro antibacterial activity (MIC), agar dilution
# Type in all cases: cell-based
# [1] = tested on: Pseudomonas aeruginosa 9027; details: 2-fold agar dilution, Muller-Hinton agar, 18 hours at 37° C., read-out: minimum inhibitory concentration (MIC)
# Experimental: (§1) 10^7 cfu/ml of bacteria were inoculated and cultured for 18 hours at 37° C. and then the antibacterial activities were measured. For the methicillin resistant strains the activities were measured after 48 hours of cultivation at 30° C. Hoechst Standard strains were used for the testings.
# [2] = tested on: Pseudomonas aeruginosa 1592E; details: 2-fold agar dilution, Muller-Hinton agar, 18 hours at 37° C., read-out: minimum inhibitory concentration (MIC)
# Experimental: as §1
# [3] = tested on: Streptococcus faecium MD 8b; details: Enterococcus faecium, MD8B, 2-fold agar dilution, Muller-Hinton agar, 18 hours at 37° C., read-out: minimum inhibitory concentration (MIC)
# Experimental: as §1
# Salmonella typhimurium = details: Salmonella enterica, 2-fold agar dilution, Muller-Hinton agar, 18 hours at 37° C., read-out: minimum inhibitory concentration (MIC)
# Experimental: as §1
# Enterobacter clocae P99 = details: 2-fold agar dilution, Muller-Hinton agar, 18 hours at 37° C., read-out: minimum inhibitory concentration (MIC)
# Experimental: as §1
# [4] = tested on: Pseudomonas aeruginosa 1771M; details: Pseudomonas aeruginosa, 1771M, 18 h, read-out: minimum inhibitory concentration (MIC)
# Experimental: as §1
# [5] = tested on: Klebsiella aerogenes 1522E; details: 2-fold agar dilution, Muller-Hinton agar, 18 hours at 37° C., read-out: minimum inhibitory concentration (MIC)
# Experimental: as §1
# Esherichia coli TEM = details: 2-fold agar dilution, Muller-Hinton agar, 18 hours at 37° C., read-out: minimum inhibitory concentration (MIC)
# Experimental: as §1
# Esherichia coli DC0 = details: 2-fold agar dilution, Muller-Hinton agar, 18 hours at 37° C., read-out: minimum inhibitory concentration (MIC)
# Experimental: as §1
# [6] = tested on: Staphylococcus aureus 285; details: 2-fold agar dilution, Muller-Hinton agar, 18 hours at 37° C., read-out: minimum inhibitory concentration (MIC)
# Experimental: as §1
# [7] = tested on: Streptococcus pyogens 308A; details: 2-fold agar dilution, Muller-Hinton agar, 18 hours at 37° C., read-out: minimum inhibitory concentration (MIC)
# Experimental: as §1
# Esherichia coli 078 = details: 2-fold agar dilution, Muller-Hinton agar, 18 hours at 37° C., read-out: minimum inhibitory concentration (MIC)
# Experimental: as §1
# [8] = tested on: Enterobacter clocae 1321E; details: 2-fold agar dilution, Muller-Hinton agar, 18 hours at 37° C., read-out: minimum inhibitory concentration (MIC)
# Experimental: as §1
# [9] = tested on: Staphylococcus aureus 503; details: 2-fold agar dilution, Muller-Hinton agar, 18 hours at 37° C., read-out: minimum inhibitory concentration (MIC)
# Experimental: as §1
# [10] = tested on: Staphylococcus aureus SG511; details: 2-fold agar dilution, Muller-Hinton agar, 18 hours at 37° C., read-out: minimum inhibitory concentration (MIC)
# Experimental: as §1
# Klebsiella oxytoca 1082E = details: 2-fold agar dilution, Muller-Hinton agar, 18 hours at 37° C., read-out: minimum inhibitory concentration (MIC)
# Experimental: as §1
# [11] = tested on: Pseudomonas aeruginosa 1771; details: 2-fold agar dilution, Muller-Hinton agar, 18 hours at 37° C., read-out: minimum inhibitory concentration (MIC)
# Experimental: as §1
# [12] = tested on: Streptococcus pyogens 77A; details: 2-fold agar dilution, Muller-Hinton agar, 18 hours at 37° C., read-out: minimum inhibitory concentration (MIC)
# Experimental: as §1
# Esherichia coli 1507E = details: 2-fold agar dilution, Muller-Hinton agar, 18 hours at 37° C., read-out: minimum inhibitory concentration (MIC)
# Experimental: as §1
SMILES,MIC [1],MIC [2],MIC [3],MIC (Salmonella typhimurium),MIC (Enterobacter clocae P99),MIC [4],MIC [5],MIC (Esherichia coli TEM),MIC (Esherichia coli DC0),MIC [6],MIC [7],MIC (Esherichia coli 078),MIC [8],MIC [9],MIC [10],MIC (Klebsiella oxytoca 1082E),MIC [11],MIC [12],MIC (Esherichia coli 1507E)
"CON=C1CN(c2nc3c(cc2F)c(=O)c(C(=O)O)cn3-c2ccc(F)cc2F)CC12CNC2.CS(=O)(=O)O [Example 7, 1-(2,4-Difluorophenyl)-6-fluoro-7-[8-(methoxyimino)-2,6-diazaspiro[3,4]oct-6-yl]-4-oxo-1,4-dihydro-1,8-naphthyridine-3-carboxylic acid methane sulfonate]",1.56 µg/mL,1.56 µg/mL,0.098 µg/mL,0.049 µg/mL,0.098 µg/mL,0.781 µg/mL,0.195 µg/mL,0.098 µg/mL,0.781 µg/mL,0.049 µg/mL,0.195 µg/mL,0.049 µg/mL,0.049 µg/mL,0.025 µg/mL,0.013 µg/mL,0.013 µg/mL,1.56 µg/mL,0.013 µg/mL,0.195 µg/mL
"CCON=C1CN(c2nc3c(cc2F)c(=O)c(C(=O)O)cn3C2CC2)CC12CNC2.CS(=O)(=O)O [Example 8, 1-Cyclopropyl-6-fluoro-7-[8-(ethoxyimino)-2,6-diazaspiro[3,4]oct-6-yl]-4-oxo-1,4-dihydro-1,8-naphthyridine-3-carboxylic acid methanesulfonate]",1.56 µg/mL,0.781 µg/mL,0.098 µg/mL,0.013 µg/mL,0.025 µg/mL,0.781 µg/mL,0.098 µg/mL,0.025 µg/mL,0.391 µg/mL,0.025 µg/mL,0.098 µg/mL,0.013 µg/mL,0.025 µg/mL,0.013 µg/mL,0.007 µg/mL,0.004 µg/mL,0.781 µg/mL,0.007 µg/mL,0.049 µg/mL
"CON=C1CN(c2nc3c(cc2F)c(=O)c(C(=O)O)cn3C2CC2)CC12CN(C)C2 [Example 10, 1-Cyclopropyl-6-fluoro-7-[8-(methoxyimino)-2-methyl-2,6-diazaspiro[3,4]oct-6-yl]-4-oxo-1,4-dihydro-1,8-naphthyridine-3-carboxylic acid]",0.781 µg/mL,0.781 µg/mL,0.098 µg/mL,0.049 µg/mL,0.049 µg/mL,0.781 µg/mL,0.098 µg/mL,0.049 µg/mL,0.391 µg/mL,0.049 µg/mL,0.098 µg/mL,0.013 µg/mL,0.025 µg/mL,0.025 µg/mL,0.013 µg/mL,0.007 µg/mL,0.781 µg/mL,0.013 µg/mL,0.049 µg/mL
